Laboratory results: PubChem BioAssay (NCI)
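96-well plates; 48 h exposure; 5 concentrations. Endpoints by linear interpolation between flanking doses. Not reached: highest tested concentration assigned. Here, GI50 denotes the concentration required for 50% inhibition of growth. TGI marks complete inhibition of growth.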

How the values were obtained:
Assay in all cases: NCI-60 cell line screen, 48 h
SNB-78 CNS = test system: SNB-78 CNS
HT29 colon = test system: HT29 colon
DLD-1 colon = test system: DLD-1 colon
OVCAR-3 ovarian = test system: OVCAR-3 ovarian
KM20L2 colon = test system: KM20L2 colon
LXFL 529 NSCLC = test system: LXFL 529 NSCLC
BT-549 breast = test system: BT-549 breast
MCF7 breast = test system: MCF7 breast
T-47D breast = test system: T-47D breast
DU-145 prostate = test system: DU-145 prostate
MDA-MB-231 breast = test system: MDA-MB-231 breast
HS 578T breast = test system: HS 578T breast

SMILES	TGI (SNB-78 CNS) [µM]	TGI (HT29 colon) [µM]	TGI (DLD-1 colon) [µM]	TGI (OVCAR-3 ovarian) [µM]	TGI (KM20L2 colon) [µM]	TGI (LXFL 529 NSCLC) [µM]	GI50 (BT-549 breast) [µM]	TGI (BT-549 breast) [µM]	GI50 (MCF7 breast) [µM]	TGI (MCF7 breast) [µM]	GI50 (HT29 colon) [µM]	GI50 (OVCAR-3 ovarian) [µM]	GI50 (T-47D breast) [µM]	TGI (T-47D breast) [µM]	GI50 (DU-145 prostate) [µM]	TGI (DU-145 prostate) [µM]	GI50 (MDA-MB-231 breast) [µM]	TGI (MDA-MB-231 breast) [µM]	GI50 (HS 578T breast) [µM]	TGI (HS 578T breast) [µM]
O=C(O)CCC(NC(=O)c1ccccc1)C(=O)O (centres undefined)	> 100	> 100	> 100	> 100	> 100	> 100	–	–	–	–	–	–	–	–	–	–	–	–	–	–
COC(=O)[C@]12CC=C3O[C@@H]4OC5(CCCCC5)O[C@@H]4C3[C@@H]1C(=O)CCC2=O (some centres undefined)	> 100	> 100	> 100	> 100	> 100	> 100	–	–	–	–	–	–	–	–	–	–	–	–	–	–
Cc1c(C(=O)CC(=O)C(=O)Nc2ccc(Cl)cc2)[n+](=O)c2ccccc2n1[O-]	> 100	–	> 100	> 100	> 100	> 100	–	–	–	–	–	–	–	–	–	–	–	–	–	–
CN(C)C=[N+]=[N-]	> 100	> 100	> 100	> 100	> 100	> 100	–	–	–	–	–	–	–	–	–	–	–	–	–	–
C/C=C1/CCC2c3[nH]c4ccccc4c3CCN2C1 (centres undefined)	> 100	> 100	> 100	> 100	> 100	> 100	–	–	–	–	–	–	–	–	–	–	–	–	–	–
COc1ccc(CC(=O)NCCc2ccc(OC)c(OC)c2)cc1Br	–	> 100	> 100	–	> 100	> 100	–	–	–	–	–	–	–	–	–	–	–	–	–	–
CC1=NN(C(=O)CC(=O)NC(=O)CC(=O)Nc2ccccc2F)C(=O)C1N=Nc1ccc([N+](=O)[O-])cc1 (centres undefined)	> 100	45.9	> 100	81.3	> 100	> 100	–	–	–	–	–	–	–	–	–	–	–	–	–	–
O=C(NCCCCCCNC(=O)OCCSCCn1cc(C(=O)NC(=O)OCc2ccccc2)c(=O)[nH]c1=O)OCCSCCn1cc(C(=O)NC(=O)OCc2ccccc2)c(=O)[nH]c1=O	> 100	> 100	> 100	> 100	> 100	> 100	–	–	–	–	–	–	–	–	–	–	–	–	–	–
O=C(O)CCSC(=O)Nc1ccccc1F	> 100	> 100	–	> 100	> 100	> 100	–	–	–	–	–	–	–	–	–	–	–	–	–	–
CCCC/C=C1\CCC(C)(CN(C)C)C1=O (centres undefined)	> 100	> 100	–	> 100	> 100	> 100	–	–	–	–	–	–	–	–	–	–	–	–	–	–
COc1ccc(S(=O)(=O)N/N=C/c2cc(I)cc([N+](=O)[O-])c2O)cc1OC	65.1	> 100	> 100	66.3	> 100	70.3	–	–	–	–	–	–	–	–	–	–	–	–	–	–
COC(=O)NN=C1C(C)(C)C(=O)C1(C)C	> 100	> 100	> 100	> 100	> 100	> 100	–	–	–	–	–	–	–	–	–	–	–	–	–	–
Cc1[nH]c(=O)n2c(C)nnc2c1C(=O)Nc1cc(Cl)cc(Cl)c1	69.6	> 100	> 100	40.8	–	> 100	–	–	–	–	–	–	–	–	–	–	–	–	–	–
Cc1cc(NCc2cc(Nc3ccnc4cc(Cl)ccc34)ccc2F)nc(N2CCN(C)CC2)n1	–	5.13	–	3.83	–	–	1.77	3.65	1.94	5.65	1.72	1.76	2.1	6.13	2.63	11.4	1.64	3.74	1.87	5.21
Nc1nc(N)c2c(n1)NC(c1ccc(F)cc1)C1CCc3ccccc3C1=N2 (centres undefined)	–	15	–	16.1	–	–	3.89	16.6	2.67	11	3.84	4.15	3.86	17.7	7.45	19.8	5.8	19.8	10.2	34.6
CN(C)CCNC(=O)c1cccc2[nH]c(-c3cccnc3)nc12	> 100	92.8	73.1	56.3	–	–	–	–	–	–	–	–	–	–	–	–	–	–	–	–
O=[N+]([O-])c1cc(C2SCc3nc4ccccc4n32)ccc1Cl (centres undefined)	80.1	> 100	> 100	67.6	–	99.7	–	–	–	–	–	–	–	–	–	–	–	–	–	–
C=C1C(=O)OC2C=C(CCC(C)=O)C(C)C(OC(C)=O)CC12 (centres undefined)	27.4	27.1	–	26	16.4	1.67	–	–	–	–	–	–	–	–	–	–	–	–	–	–
O=c1oc2cc(N=Cc3ccc4c(c3)OCO4)ccc2c2ccccc12	–	> 100	–	> 100	–	–	–	> 100	–	> 100	–	–	–	> 100	–	> 100	–	> 100	–	> 100
CCN(CC)CCn1c2ccccc2c(=O)c2c(O)ccc(O)c21	> 60.2	59.8	–	47.6	> 100	41.7	–	44.7	–	40.1	–	–	–	34.3	–	> 100	–	29.9	–	53.5
Fc1ccccc1C1SCc2nc3ccccc3n21 (centres undefined)	> 100	> 100	> 100	> 100	–	> 100	–	–	–	–	–	–	–	–	–	–	–	–	–	–
c1ccc2cc3[s+]snc3cc2c1	> 100	> 100	> 100	> 100	> 100	> 100	–	–	–	–	–	–	–	–	–	–	–	–	–	–
C=C1C(=O)O[C@H]2[C@H](OC(C)=O)[C@@H](C)CCC/C(C)=C/CC[C@@]3(C)O[C@@H]3C[C@@H]12	–	8.05	–	16.2	–	–	–	8.76	–	7.71	–	–	–	3.62	–	6.87	–	10.6	–	13.2
Cc1ccc2c(c1)C(C)Cc1c(Cl)ncnc1N2C (centres undefined)	–	47.2	–	5.4	–	–	3	9.74	2.96	11.7	3.48	2.26	6.9	65	4.21	91.9	2.55	6.84	1.89	34
O=c1[nH]c(=O)c2cc(C3CC(O)C(CO)O3)ccc2[nH]1 (centres undefined)	–	> 100	–	> 100	–	–	> 100	> 100	> 100	> 100	> 100	> 100	> 100	> 100	> 100	> 100	> 100	> 100	> 100	> 100
COc1ccc(-n2cc(-c3cc(OC)c(OC)c(OC)c3)nc2SCc2ccccc2)cc1OC	–	> 100	–	> 100	–	–	> 82.7	> 100	34.6	> 100	> 100	> 100	12.3	> 100	> 100	> 100	> 63.6	> 100	> 100	> 100
